According to patent US20230190731A1, “FORMULATION COMPRISING HIF PROLYL HYDROXYLASE INHIBITORS” (ZYDUS LIFESCIENCES LIMITED, priority 2020, published 2023):

How the values were obtained:
[1] = Solubility of compounds of formula (Ia) in various media; type: physicochemical
[2] = tested on: hypoxia inducible factor (HIF) prolyl hydroxylase; assay: Inhibition of hypoxia inducible factor (HIF) prolyl hydroxylase (statement only); type: biochemical

- solubility ([1]; in 0.1 N HCL): insoluble
- solubility ([1]; in N,N-dimethyl formamide): freely soluble
- solubility ([1]; in alkaline aqueous condition): soluble
- solubility ([1]; in water): partially soluble
- inhibitor of HIF prolyl hydroxylase [2]: potent inhibitor
SMILES: O=C(O)CNC(=O)c1c(O)c2ccccc2n(OCC2CC2)c1=O [Compound (Ia)]
